From the supplement of paper PMC10307832

Legend:
Experiment in all cases: relative viability (nuclei count vs DMSO), 5 days (fraction); higher = more cells survive
[1] = test system: NCI-H1355
How it was run: (§1)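 Lung cancer cell lines were pin-tool dosed in 1536-well plates on the day after seeding, with either a lone drug or a fixed anchor-drug dose plus five library-drug doses (not always all listed) in √10 steps. Nuclei were counted on 4× images after 5 days. Relative viability is the ratio of treated-well to vehicle-well nuclei counts, with each value a median of duplicate plates.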

[2] = test system: HCC-827
How it was run: as §1

[3] = test system: HCC-366
How it was run: as §1

[4] = test system: NCI-H2085
How it was run: as §1

[5] = test system: NCI-H2009
How it was run: as §1

[6] = test system: NCI-H460
How it was run: as §1

[7] = test system: ChaGo-K-1
How it was run: as §1

[8] = test system: NCI-H1993
How it was run: as §1

[9] = test system: H3255
How it was run: as §1

[10] = test system: NCI-H2342
How it was run: as §1

[11] = test system: EKVX
How it was run: as §1

Question: With Cc1csc(=NC2CCCCC2)n1/N=C/c1ccc(O)c(O)c1O [MIM1] + COc1cc2c(Oc3ccc(NC(=O)C4(C(=O)Nc5ccc(F)cc5)CC4)cc3F)ccnc2cc1OCCCN1CCOCC1 [Foretinib] (partner 0.25 µM) as the compound, how does the relative viability ([1]; first compound 0.2 µM) read?
Answer: 0.911

Question: What about the relative viability ([1]; first compound 0.6325 µM) of the same compound?
Answer: 0.885

Question: And the relative viability ([1]; first compound 2 µM)?
Answer: 0.976

Question: What about the relative viability ([1]; first compound 6.325 µM) of the same compound?
Answer: 0.87

Question: What about the relative viability ([1]; first compound 20 µM) of the same compound?
Answer: 0.629

Question: And the relative viability ([2]; first compound 0.2 µM)?
Answer: 1.04

Question: And the relative viability ([2]; first compound 0.6325 µM)?
Answer: 1

Question: And the relative viability ([2]; first compound 2 µM)?
Answer: 1.01

Question: What about the relative viability ([2]; first compound 6.325 µM) of the same compound?
Answer: 0.402

Question: And the relative viability ([2]; first compound 20 µM)?
Answer: 0.207

Question: And the relative viability ([3]; first compound 0.2 µM)?
Answer: 0.927

Question: And the relative viability ([3]; first compound 2 µM)?
Answer: 0.993

Question: What about the relative viability ([3]; first compound 6.325 µM) of the same compound?
Answer: 0.782

Question: And the relative viability ([3]; first compound 20 µM)?
Answer: 0.077

Question: What about the relative viability ([4]; first compound 0.2 µM) of the same compound?
Answer: 0.895

Question: And the relative viability ([4]; first compound 0.6325 µM)?
Answer: 1.11

Question: And the relative viability ([4]; first compound 2 µM)?
Answer: 1.13

Question: What about the relative viability ([4]; first compound 6.325 µM) of the same compound?
Answer: 0.935

Question: And the relative viability ([4]; first compound 20 µM)?
Answer: 0.843

Question: What about the relative viability ([5]; first compound 0.2 µM) of the same compound?
Answer: 1.19

Question: What about the relative viability ([5]; first compound 0.6325 µM) of the same compound?
Answer: 1.25

Question: And the relative viability ([5]; first compound 2 µM)?
Answer: 1.27

Question: And the relative viability ([5]; first compound 6.325 µM)?
Answer: 1.09

Question: And the relative viability ([5]; first compound 20 µM)?
Answer: 0.566

Question: And the relative viability ([6]; first compound 0.2 µM)?
Answer: 0.954

Question: What about the relative viability ([6]; first compound 0.6325 µM) of the same compound?
Answer: 0.987

Question: And the relative viability ([6]; first compound 2 µM)?
Answer: 0.862

Question: And the relative viability ([6]; first compound 6.325 µM)?
Answer: 0.493

Question: And the relative viability ([6]; first compound 20 µM)?
Answer: 0.0555

Question: And the relative viability ([7]; first compound 0.2 µM)?
Answer: 0.973

Question: And the relative viability ([7]; first compound 0.6325 µM)?
Answer: 1

Question: And the relative viability ([7]; first compound 2 µM)?
Answer: 0.774

Question: And the relative viability ([7]; first compound 6.325 µM)?
Answer: 0.771

Question: And the relative viability ([7]; first compound 20 µM)?
Answer: 0.282

Question: What about the relative viability ([8]; first compound 0.2 µM) of the same compound?
Answer: 0.7

Question: And the relative viability ([8]; first compound 0.6325 µM)?
Answer: 0.715

Question: And the relative viability ([8]; first compound 2 µM)?
Answer: 0.671

Question: And the relative viability ([8]; first compound 6.325 µM)?
Answer: 0.659

Question: What about the relative viability ([8]; first compound 20 µM) of the same compound?
Answer: 0.64

Question: What about the relative viability ([9]; first compound 0.2 µM) of the same compound?
Answer: 0.945

Question: What about the relative viability ([9]; first compound 0.6325 µM) of the same compound?
Answer: 0.715

Question: What about the relative viability ([9]; first compound 2 µM) of the same compound?
Answer: 0.743

Question: What about the relative viability ([9]; first compound 6.325 µM) of the same compound?
Answer: 0.724

Question: And the relative viability ([9]; first compound 20 µM)?
Answer: 0.307

Question: And the relative viability ([10]; first compound 0.2 µM)?
Answer: 1.25

Question: And the relative viability ([10]; first compound 0.6325 µM)?
Answer: 0.952

Question: And the relative viability ([10]; first compound 2 µM)?
Answer: 1.07

Question: And the relative viability ([10]; first compound 6.325 µM)?
Answer: 0.952

Question: What about the relative viability ([10]; first compound 20 µM) of the same compound?
Answer: 1.11

Question: And the relative viability ([11]; first compound 0.2 µM)?
Answer: 0.766

Question: And the relative viability ([11]; first compound 0.6325 µM)?
Answer: 0.234
